#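 The compound was tested at five concentrations on cells cultured in 96-well plates, with a 48-hour exposure period. TGI: total growth inhibition.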
# Test system: HOP-18 NSCLC
# Assay: NCI tumour cell line growth inhibition, 48 h
row,Structure (SMILES),TGI [µM]
1,COc1ccc(C2COc3cc(O)c(O)cc3C2)cc1 (stereo not given),110
2,CCOC(=O)c1ccc(C)c(N=NN(C)C)c1,> 100
3,COc1cc2c3c(c1OC)C1(C=CC(=O)C=C1)C[C@H]3N(C)CC2,> 100
4,O=NN(CCCl)C(=O)NC1CCC(O)CC1 (stereo not given),> 90.9
5,CSc1sc2ccccc2[s+]1,> 100
6,Cc1ccc(S(=O)(=O)C(C#N)c2nc3ccccc3nc2-n2ccnc2)cc1 (stereo not given),> 100
7,O=c1c(C(c2ccc(Cl)cc2)c2c(O)c3ccccc3n(-c3ccccc3)c2=O)c(O)c2ccccc2n1-c1ccccc1,> 100

# Test system: SNB-78 CNS
# Assay: NCI tumour cell line growth inhibition, 48 h
row,Structure (SMILES),TGI [µM]
1,COc1c(C(C)C)cc2c3c1OC(=O)[C@@]31CCCC(C)(C)C1CC2 (stereo not given in full),67.1
2,OCc1ccc(C2CC(c3ccco3)=NN2c2ccccc2)o1 (stereo not given),> 100
3,COc1ccc(C2COc3cc(O)c(O)cc3C2)cc1 (stereo not given),268
4,COc1cc2c3c(c1OC)C1(C=CC(=O)C=C1)C[C@H]3N(C)CC2,> 100
5,O=NN(CCCl)C(=O)NC1CCC(O)CC1 (stereo not given),63.3
6,O=C(CN(c1ccccc1)c1ccccc1)n1nnc2ccccc21,> 100
7,Cc1ccc(S(=O)(=O)C(C#N)c2nc3ccccc3nc2-n2ccnc2)cc1 (stereo not given),> 100
8,CC(=O)O[C@]12CCCCCC1C1(O)C(O)CCCC[C@H]12 (stereo not given in full),> 100
9,O=c1c(C(c2ccc(Cl)cc2)c2c(O)c3ccccc3n(-c3ccccc3)c2=O)c(O)c2ccccc2n1-c1ccccc1,> 100

# Test system: M14 melanoma
# Assay: NCI tumour cell line growth inhibition, 48 h
row,Structure (SMILES),TGI [µM]
1,COc1c(C(C)C)cc2c3c1OC(=O)[C@@]31CCCC(C)(C)C1CC2 (stereo not given in full),> 100
2,OCc1ccc(C2CC(c3ccco3)=NN2c2ccccc2)o1 (stereo not given),> 100
3,CCOC(=O)c1ccc(C)c(N=NN(C)C)c1,> 100
4,COc1cc2c3c(c1OC)C1(C=CC(=O)C=C1)C[C@H]3N(C)CC2,> 100
5,O=C(CN(c1ccccc1)c1ccccc1)n1nnc2ccccc21,> 100
6,CSc1sc2ccccc2[s+]1,> 100
7,Cc1ccc(S(=O)(=O)C(C#N)c2nc3ccccc3nc2-n2ccnc2)cc1 (stereo not given),> 100
8,C=CC[C@]12C=C(OC)[C@@H](O)[C@](OC)(C(c3cc(OC)c4c(c3)OCO4)[C@H]1C)[C@H]2OC(C)=O (stereo not given in full),> 100
9,C=C(Cl)C(C)(Cl)CCC(Br)C(C)(C)Cl (stereo not given),34.7
10,COC(=O)C1CCCN1C(=O)C(Cc1cn(S(=O)(=O)c2ccc(C)cc2)cn1)NC(=O)OC(C)(C)C (stereo not given),> 100
11,Nc1ccc(S2(c3ccc(N)cc3)C=C(c3ccccc3)C(c3ccccc3)=C2)cc1,> 100
12,COc1ccc2c(cnc3c4cc(OC)c(OC)cc4ccc23)c1,> 100
13,O=C1C(=Cc2ccccc2O)N=C(c2ccccc2)N1n1c(-c2ccccc2)nc2ccccc2c1=O,57.1
14,CC(=O)O[C@]12CCCCCC1C1(O)C(O)CCCC[C@H]12 (stereo not given in full),> 100
15,COC(=O)C1=C(C)NC(C)=C(C(=O)OC)C1c1nc2sccn2c1[N+](=O)[O-],> 100
16,CCNC(=O)Nc1cccc(NC(=O)NCC)n1,> 100
17,C=CCOc1ccc(C2C(C(=O)OCC)C(=O)CC(C)(O)C2C(=O)OCC)cc1OC (stereo not given),> 100
18,CC(C)=CCNc1ncnc2c1ncn2CCC#N,> 100
19,Nc1nc(Cl)cc(NCC2(CO)CCCC2)n1,> 100

# Test system: LXFL 529 NSCLC
# Assay: NCI tumour cell line growth inhibition, 48 h
row,Structure (SMILES),TGI [µM]
1,COc1c(C(C)C)cc2c3c1OC(=O)[C@@]31CCCC(C)(C)C1CC2 (stereo not given in full),49.8
2,OCc1ccc(C2CC(c3ccco3)=NN2c2ccccc2)o1 (stereo not given),> 100
3,COc1cc2c3c(c1OC)C1(C=CC(=O)C=C1)C[C@H]3N(C)CC2,> 100
4,O=C(CN(c1ccccc1)c1ccccc1)n1nnc2ccccc21,> 100
5,CSc1sc2ccccc2[s+]1,> 100
6,Cc1ccc(S(=O)(=O)C(C#N)c2nc3ccccc3nc2-n2ccnc2)cc1 (stereo not given),> 100
7,CC(=O)O[C@]12CCCCCC1C1(O)C(O)CCCC[C@H]12 (stereo not given in full),> 100
8,O=c1c(C(c2ccc(Cl)cc2)c2c(O)c3ccccc3n(-c3ccccc3)c2=O)c(O)c2ccccc2n1-c1ccccc1,> 100

# Test system: DLD-1 colon
# Assay: NCI tumour cell line growth inhibition, 48 h
row,Structure (SMILES),TGI [µM]
1,COc1c(C(C)C)cc2c3c1OC(=O)[C@@]31CCCC(C)(C)C1CC2 (stereo not given in full),> 100
2,COc1ccc(C2COc3cc(O)c(O)cc3C2)cc1 (stereo not given),25.3
3,CCOC(=O)c1ccc(C)c(N=NN(C)C)c1,> 100
4,COc1cc2c3c(c1OC)C1(C=CC(=O)C=C1)C[C@H]3N(C)CC2,> 100
5,O=NN(CCCl)C(=O)NC1CCC(O)CC1 (stereo not given),> 77
6,O=C(CN(c1ccccc1)c1ccccc1)n1nnc2ccccc21,> 100
7,CSc1sc2ccccc2[s+]1,> 100
8,Cc1ccc(S(=O)(=O)C(C#N)c2nc3ccccc3nc2-n2ccnc2)cc1 (stereo not given),> 100
9,O=c1c(C(c2ccc(Cl)cc2)c2c(O)c3ccccc3n(-c3ccccc3)c2=O)c(O)c2ccccc2n1-c1ccccc1,> 100

# Test system: P388 leukemia
# Assay: NCI tumour cell line growth inhibition, 48 h
row,Structure (SMILES),TGI [µM]
1,COc1ccc(C2COc3cc(O)c(O)cc3C2)cc1 (stereo not given),18.7
2,O=NN(CCCl)C(=O)NC1CCC(O)CC1 (stereo not given),20.5

# Test system: RXF-631 renal
# Assay: NCI tumour cell line growth inhibition, 48 h
row,Structure (SMILES),TGI [µM]
1,COc1cc2c3c(c1OC)C1(C=CC(=O)C=C1)C[C@H]3N(C)CC2,> 100
2,CSc1sc2ccccc2[s+]1,> 100
3,O=c1c(C(c2ccc(Cl)cc2)c2c(O)c3ccccc3n(-c3ccccc3)c2=O)c(O)c2ccccc2n1-c1ccccc1,> 100

# Test system: SN12K1 renal
# Assay: NCI tumour cell line growth inhibition, 48 h
row,Structure (SMILES),TGI [µM]
1,COc1ccc(C2COc3cc(O)c(O)cc3C2)cc1 (stereo not given),98.9
2,O=NN(CCCl)C(=O)NC1CCC(O)CC1 (stereo not given),> 100

# Test system: DMS 273 small cell lung
# Assay: NCI tumour cell line growth inhibition, 48 h
row,Structure (SMILES),TGI [µM]
1,COc1c(C(C)C)cc2c3c1OC(=O)[C@@]31CCCC(C)(C)C1CC2 (stereo not given in full),> 100
2,OCc1ccc(C2CC(c3ccco3)=NN2c2ccccc2)o1 (stereo not given),> 100
3,COc1ccc(C2COc3cc(O)c(O)cc3C2)cc1 (stereo not given),160
4,CCOC(=O)c1ccc(C)c(N=NN(C)C)c1,> 100
5,COc1cc2c3c(c1OC)C1(C=CC(=O)C=C1)C[C@H]3N(C)CC2,> 100
6,O=NN(CCCl)C(=O)NC1CCC(O)CC1 (stereo not given),> 100
7,O=C(CN(c1ccccc1)c1ccccc1)n1nnc2ccccc21,> 100
8,CSc1sc2ccccc2[s+]1,> 100
9,Cc1ccc(S(=O)(=O)C(C#N)c2nc3ccccc3nc2-n2ccnc2)cc1 (stereo not given),> 100
10,CC(=O)O[C@]12CCCCCC1C1(O)C(O)CCCC[C@H]12 (stereo not given in full),> 100
11,O=c1c(C(c2ccc(Cl)cc2)c2c(O)c3ccccc3n(-c3ccccc3)c2=O)c(O)c2ccccc2n1-c1ccccc1,> 100

# Test system: SR leukemia
# Assay: NCI tumour cell line growth inhibition, 48 h
row,Structure (SMILES),TGI [µM]
1,COc1c(C(C)C)cc2c3c1OC(=O)[C@@]31CCCC(C)(C)C1CC2 (stereo not given in full),> 100
2,OCc1ccc(C2CC(c3ccco3)=NN2c2ccccc2)o1 (stereo not given),> 100
3,CCOC(=O)c1ccc(C)c(N=NN(C)C)c1,> 100
4,COc1cc2c3c(c1OC)C1(C=CC(=O)C=C1)C[C@H]3N(C)CC2,> 100
5,O=C(CN(c1ccccc1)c1ccccc1)n1nnc2ccccc21,> 100

# From PubChem BioAssay (NCI)
